The structures appear in SMILES notation. Values joined by “and” are separate entries in the source; they are usually repeats but may differ in a detail not shown here. Equal entries are not always repeated.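 The compound was tested at five concentrations on cells cultured in 96-well plates, with a 48-hour exposure period. GI50 marks 50% less growth. At the TGI there is no net growth.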

From PubChem BioAssay (NCI) come the findings set out here.

Among the test systems are NCI-H23 lung; OVCAR-4 ovarian; HCT-116 colon; OVCAR-3 ovarian; 786-0 renal; SF-539 CNS; SK-MEL-5 melanoma; UACC-62 melanoma; RPMI-8226 leukemia.
Holding throughout (assay): NCI-60 cell line screen, 48 h

Take `Cc1cc(Cl)ccc1Nc1nc(C(F)(F)F)ccc1C(=O)N/N=C/c1ccc([N+](=O)[O-])cc1`: the GI50 in the assay with NCI-H23 lung is 1.65 µM; with OVCAR-4 ovarian, 0.602 µM; in the assay with HCT-116 colon, 1.85 µM; with OVCAR-3 ovarian, 0.777 µM; with 786-0 renal it was 3.09 µM; in the assay on SF-539 CNS, 2.65 µM. The GI50 is 1.87 µM with SK-MEL-5 melanoma, 2.6 µM with UACC-62 melanoma and 0.435 µM with RPMI-8226 leukemia. The TGI in the assay on NCI-H23 lung was greater than 22 µM; in the assay with OVCAR-4 ovarian, greater than 20 µM; in the assay with HCT-116 colon it was greater than 23.9 µM; with OVCAR-3 ovarian, 2.63 µM; in the assay with 786-0 renal it was greater than 40.9 µM; with SF-539 CNS it was 14.4 µM. Moreover, the values for the TGI with SK-MEL-5 melanoma, in the assay on UACC-62 melanoma and in the assay with RPMI-8226 leukemia were 4.08 µM, 11.7 µM and 1.77 µM, respectively.
With `CC(=O)NC(CCCCNC(=O)NCCCl)C(=O)NCc1ccccc1` (configuration not stated), the TGI with NCI-H23 lung, in the assay on OVCAR-4 ovarian, with HCT-116 colon, in the assay on OVCAR-3 ovarian, in the assay on 786-0 renal and in the assay on SF-539 CNS was greater than 100 µM throughout. Moreover, the TGI in the assay on SK-MEL-5 melanoma, in the assay with UACC-62 melanoma and in the assay on RPMI-8226 leukemia was greater than 100 µM throughout.
For the compound `O=c1cccc(C2CC(CO)C3CCCCN3C2)[nH]1` (configuration not stated), the TGI with NCI-H23 lung, in the assay on OVCAR-4 ovarian, with HCT-116 colon, with OVCAR-3 ovarian, in the assay on 786-0 renal and in the assay with SF-539 CNS was greater than 100 µM in each case. For the same compound, the TGI with SK-MEL-5 melanoma, in the assay on UACC-62 melanoma and in the assay on RPMI-8226 leukemia was greater than 100 µM each time.
Turning to `CCOc1cc(/C=N\Nc2nnc(C)n2N)c(C)cc1N(CCCl)CCCl`, the GI50 in the assay with NCI-H23 lung was 0.8 µM; in the assay with OVCAR-4 ovarian, 0.338 µM; with HCT-116 colon, 0.56 µM; with OVCAR-3 ovarian, 0.737 µM; in the assay with 786-0 renal, 1.51 µM; with SF-539 CNS, 1.29 µM. Moreover, the results for the GI50 in the assay on SK-MEL-5 melanoma, with UACC-62 melanoma and in the assay on RPMI-8226 leukemia were 0.259 µM, 0.525 µM and 0.0978 µM, respectively. In addition, the TGI in the assay with NCI-H23 lung is 9.49 µM; in the assay on OVCAR-4 ovarian, greater than 68.2 µM; in the assay on HCT-116 colon, 13.2 µM; with OVCAR-3 ovarian it was 38.6 µM; with 786-0 renal, 23.2 µM; in the assay on SF-539 CNS it was 17.4 µM. Further, the TGI with SK-MEL-5 melanoma came to 1.05 µM; in the assay on UACC-62 melanoma, 15.3 µM; in the assay with RPMI-8226 leukemia, 3.01 µM.
In the case of `C=CC(=O)Nc1cc2c(Nc3ccc(F)c(Cl)c3)ncnc2cc1OCCCN1CCOCC1`, the GI50 was 1.82 µM and 2.39 µM in the assay on NCI-H23 lung; 2.61 µM and 2.71 µM with OVCAR-4 ovarian; 1.58 µM and 2.35 µM in the assay with HCT-116 colon; 1.52 µM and 1.3 µM with OVCAR-3 ovarian; 2.04 µM and 3.04 µM in the assay with 786-0 renal; 1.58 µM and 3.89 µM in the assay on SF-539 CNS. Further, the GI50 was 3.3 µM and > 7.32 µM in the assay with SK-MEL-5 melanoma; 1.77 µM and 2.19 µM with UACC-62 melanoma; 1.94 µM and 2.75 µM with RPMI-8226 leukemia. Moreover, the TGI in the assay on NCI-H23 lung was 3.94 µM and > 6.12 µM; in the assay with OVCAR-4 ovarian, 9.73 µM and > 10 µM; in the assay on HCT-116 colon, 3 µM and > 5.9 µM; with OVCAR-3 ovarian, 4.63 µM and > 8.9 µM; in the assay with 786-0 renal, 10.9 µM and > 10 µM; in the assay on SF-539 CNS, 3.5 µM and > 10 µM. In addition, the TGI was 13.3 µM and > 10 µM with SK-MEL-5 melanoma; 4.48 µM and > 7.71 µM with UACC-62 melanoma; 5.17 µM and > 10 µM in the assay on RPMI-8226 leukemia.
With `CN(C)/N=C(/c1nc2ccc(Cl)cc2[nH]c1=O)C(O)c1ccc(C(O)/C(=N\N(C)C)c2nc3ccc(Cl)cc3[nH]c2=O)cc1` (configuration not stated), the TGI with NCI-H23 lung, in the assay with OVCAR-4 ovarian, in the assay with HCT-116 colon, with OVCAR-3 ovarian, with 786-0 renal and with SF-539 CNS was greater than 100 µM each time. For the same compound, the TGI in the assay with SK-MEL-5 melanoma, with UACC-62 melanoma and in the assay on RPMI-8226 leukemia was greater than 100 µM throughout.
Take `O=C(O)c1ccc2c(c1)CCCC(c1ccc(Cl)cc1Cl)=C2c1ccc(O[C@H]2CCN(CCCF)C2)cc1`: the GI50 with NCI-H23 lung was 13.2 µM; in the assay on OVCAR-4 ovarian, 12 µM; in the assay with HCT-116 colon, 7.98 µM; in the assay with OVCAR-3 ovarian, 12.1 µM; in the assay on 786-0 renal, 12.9 µM; with SF-539 CNS, 14.1 µM. In addition, the values for the GI50 in the assay on SK-MEL-5 melanoma, in the assay on UACC-62 melanoma and with RPMI-8226 leukemia were 10.8 µM, 12.7 µM and 6.99 µM, respectively. For the same compound, the TGI in the assay with NCI-H23 lung is 29.3 µM; with OVCAR-4 ovarian it was 30 µM; with HCT-116 colon it was 21.7 µM; with OVCAR-3 ovarian it was 24.7 µM; with 786-0 renal, 28 µM; in the assay with SF-539 CNS, 27.5 µM. For the same compound, the TGI in the assay with SK-MEL-5 melanoma is 23.2 µM; in the assay with UACC-62 melanoma it was 26.3 µM; with RPMI-8226 leukemia it was 27.5 µM.
With `COc1cc2ncnc(Nc3ccc(F)c(Cl)c3)c2cc1NC(=O)/C=C/CN1CCCCC1`, the GI50 with NCI-H23 lung was 2.65 µM and 2.54 µM; in the assay on OVCAR-4 ovarian it was 1.16 µM and 1.79 µM; in the assay with HCT-116 colon, 1.45 µM and 1.54 µM; in the assay on OVCAR-3 ovarian, 1.14 µM and 1.21 µM; in the assay with 786-0 renal, 1.5 µM and 1.29 µM; in the assay with SF-539 CNS, 1.63 µM and 1.56 µM. In addition, the GI50 in the assay on SK-MEL-5 melanoma was 1.61 µM and 1.66 µM; with UACC-62 melanoma it was 1.61 µM and 1.73 µM; with RPMI-8226 leukemia it was 1.95 µM and 1.93 µM. The TGI in the assay on NCI-H23 lung was 7.81 µM and > 8.79 µM; with OVCAR-4 ovarian it was 4.86 µM and 7.17 µM; in the assay with HCT-116 colon it was 3.1 µM and 3.54 µM; with OVCAR-3 ovarian, 2.45 µM and 3.24 µM; with 786-0 renal, 2.98 µM and 2.75 µM; with SF-539 CNS, 3.08 µM and 3.03 µM. The TGI with SK-MEL-5 melanoma is 3.13 µM and 3.06 µM; with UACC-62 melanoma, 3.02 µM and 3.23 µM; in the assay on RPMI-8226 leukemia, 5.11 µM and 4.99 µM.
